The record followed here is ChEMBL document CHEMBL5500404, “Discovery and Development of NLRP3 Inhibitors Targeting the LRR Domain to Disrupt NLRP3-NEK7 Interaction for the Treatment of Rheumatoid Arthritis” (J Med Chem, 2024).

Activity calls are given as the source filed them. No cut-off for these calls is given here.

The subject of data set [1] is Rattus norvegicus. In words: Anti-inflammatory activity against complete Freund's adjuvant (CFA)-induced arthritis rat model assessed as recovery in degree of swelling in right hind paw at 20 to 80 mg/kg, ip treated after 17 days of CFA challenge measured after 18 days (day 17 to 34) relative to control. Format: functional, organism-based. As to conditions: dose 20-80 mg/kg, time 18.0 day.

Data set [2] deals with T1, Interferon-inducible protein AIM2 (Homo sapiens) (UniProt O14862).
T1 sequence (whole entry): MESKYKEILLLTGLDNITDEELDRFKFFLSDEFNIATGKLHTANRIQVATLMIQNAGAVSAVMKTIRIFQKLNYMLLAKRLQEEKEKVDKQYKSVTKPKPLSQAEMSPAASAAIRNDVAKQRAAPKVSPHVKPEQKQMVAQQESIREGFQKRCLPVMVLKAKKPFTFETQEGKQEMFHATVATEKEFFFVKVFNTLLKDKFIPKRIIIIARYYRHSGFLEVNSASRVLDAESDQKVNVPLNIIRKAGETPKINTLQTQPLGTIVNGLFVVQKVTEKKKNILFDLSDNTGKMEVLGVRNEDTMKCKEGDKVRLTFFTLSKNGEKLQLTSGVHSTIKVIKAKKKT
In words: Inhibition of AIM2 inflammasome in poly(DA:DT)-induced human THP-M cells assessed as inhibition of IL-1beta level at 20 to 60 uM pretreated for 24 hrs followed by stimulated with LPS by ELISA. Format: cell-based. Conditions: dose 20-60 µM.

In data set [3] the target is NLR family CARD domain-containing protein 4 (Homo sapiens) (UniProt Q9NPP4). In words: Inhibition of NLRC4 inflammasome in flagellin of Salmonella typhimurium-induced human THP-M cells assessed as inhibition of IL-1beta level at 20 to 60 uM pretreated for 24 hrs followed by stimulated with LPS by ELISA. The data set is classed as cell-based. Conditions: dose 20-60 µM.
NLR family CARD domain-containing protein 4 (Homo sapiens), sequence (Q9NPP4 whole entry, the tested form may be a part): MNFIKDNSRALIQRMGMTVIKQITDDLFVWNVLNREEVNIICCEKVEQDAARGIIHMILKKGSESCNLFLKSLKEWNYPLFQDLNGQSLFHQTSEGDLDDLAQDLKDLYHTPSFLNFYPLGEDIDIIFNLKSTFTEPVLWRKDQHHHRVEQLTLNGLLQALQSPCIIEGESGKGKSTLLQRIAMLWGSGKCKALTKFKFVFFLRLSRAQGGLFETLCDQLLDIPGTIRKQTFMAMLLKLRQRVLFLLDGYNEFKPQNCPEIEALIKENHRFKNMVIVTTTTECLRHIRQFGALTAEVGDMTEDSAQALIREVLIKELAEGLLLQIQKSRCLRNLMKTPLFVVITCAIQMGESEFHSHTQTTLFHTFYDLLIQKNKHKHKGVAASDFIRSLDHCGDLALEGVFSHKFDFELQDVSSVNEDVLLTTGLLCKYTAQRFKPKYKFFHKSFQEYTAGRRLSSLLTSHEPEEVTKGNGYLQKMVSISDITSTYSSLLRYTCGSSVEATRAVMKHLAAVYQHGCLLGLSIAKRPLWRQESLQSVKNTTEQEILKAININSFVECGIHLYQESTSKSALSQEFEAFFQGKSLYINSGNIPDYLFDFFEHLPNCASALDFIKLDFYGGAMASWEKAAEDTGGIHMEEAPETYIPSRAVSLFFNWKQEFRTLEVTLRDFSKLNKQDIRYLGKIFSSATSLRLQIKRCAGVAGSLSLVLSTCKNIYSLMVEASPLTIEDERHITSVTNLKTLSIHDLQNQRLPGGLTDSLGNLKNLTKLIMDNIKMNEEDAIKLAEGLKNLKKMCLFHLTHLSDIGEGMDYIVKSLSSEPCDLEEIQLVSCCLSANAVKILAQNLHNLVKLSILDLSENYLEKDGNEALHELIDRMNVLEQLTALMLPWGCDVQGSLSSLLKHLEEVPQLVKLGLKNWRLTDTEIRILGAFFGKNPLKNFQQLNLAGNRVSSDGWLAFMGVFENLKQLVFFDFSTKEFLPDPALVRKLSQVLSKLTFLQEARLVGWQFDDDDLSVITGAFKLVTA

The nature of data set [4]: Apparent volume of distribution during terminal phase in Sprague-Dawley rat at 20 mg/kg, ip measured upto 720 mins by LC-MS/MS analysis. The data set is classed as ADME, organism-based. As to conditions: in vivo, read-out: Vz/F.
In data set [5] the test system is Rattus norvegicus. In words: Anti-inflammatory activity against complete Freund's adjuvant (CFA)-induced arthritis rat model assessed as reduction in body weight at 20 to 80 mg/kg, ip treated after 17 days of CFA challenge measured after 18 days (day 17 to 34) relative to control. The data set is classed as functional, organism-based. As to conditions: dose 20-80 mg/kg, time 18.0 day.

`COCCCNC(=O)c1ccc(Cn2c(SCC3CCCCC3)nc3ccncc32)cc1`: the outcome in the data set on Rattus norvegicus [1] and in the data set on Rattus norvegicus [5] was Active. Also, the inhibition result in data set [2] and in data set [3] was “inactive” each time. The Vd/F in data set [4] is 2.8 L/kg.
